This assay addresses GLP-1R (Homo sapiens, UniProt P43220). The experiment in a line: GLP-1R Activation - cAMP Assay. It is filed as cell-based. To be noted: cAMP increase in CHO cells stably expressing GLP-1R; each compound run on one of the two cAMP assays (Assay 1 or Assay 2, not specified). Put shortly: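 cAMP rise read by HTRF after 30 min agonist exposure (10-point titration, 37 °C) in HBSS/20 mM Hepes/0.1% BSA, following 1 h pre-incubation. Cells: stable GLP-1R CHO line, 1,000/well, seeded overnight. Sigmoidal fit of response vs log concentration gives EC50.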
Background: Cyclic AMP is a second messenger, typically raised through Gs and lowered through Gi signalling.

pEC50: −log10 of the molar value.

This is an account of results in US12570642B2, “GLP-IR modulating compounds” (Gilead Sciences, Inc., priority 2021, dated 2026).

One may read the pEC50 as the negative decadic logarithm of the EC50, by convention in mol/L. A low value points to a large EC50.

Chain of GLP-1R (P43220 24-463): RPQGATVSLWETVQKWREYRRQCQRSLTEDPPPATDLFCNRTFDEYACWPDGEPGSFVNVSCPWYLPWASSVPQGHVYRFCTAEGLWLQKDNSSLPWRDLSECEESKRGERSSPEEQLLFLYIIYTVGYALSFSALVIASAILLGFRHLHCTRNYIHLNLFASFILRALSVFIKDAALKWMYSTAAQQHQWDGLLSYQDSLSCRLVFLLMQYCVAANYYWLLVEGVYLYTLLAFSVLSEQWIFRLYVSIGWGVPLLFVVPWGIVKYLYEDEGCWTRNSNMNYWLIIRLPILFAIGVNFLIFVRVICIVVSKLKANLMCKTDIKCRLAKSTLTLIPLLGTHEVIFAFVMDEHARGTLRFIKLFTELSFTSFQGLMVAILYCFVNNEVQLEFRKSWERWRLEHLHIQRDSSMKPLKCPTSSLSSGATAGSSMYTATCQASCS

In turn, `N#Cc1ccc(COc2cccc(-c3cc(F)c(Cc4nc5ccc(C(=O)O)cc5n4N4CCCC4)cc3F)n2)c(F)c1` [Example 67, 2-(4-(6-((4-cyano-2-fluorobenzyl)oxy)pyridin-2-yl)-2,5-difluorobenzyl)-1-(pyrrolidin-1-yl)-1H-benzo[d]imidazole-6-carboxylic Acid] showed a pEC50 of 8.14.
The value for `COCCn1c(Cc2c(F)cc(-c3cccc(OCc4cnc(-n5ccnn5)cc4Cl)n3)c(F)c2F)nc2ccc(C(=O)O)cc21` [Example 391, 2-(4-(6-((4-chloro-6-(1H-1,2,3-triazol-1-yl)pyridin-3-yl)methoxy)pyridin-2-yl)-2,3,6-trifluorobenzyl)-1-(2-methoxyethyl)-1H-benzo[d]imidazole-6-carboxylic acid] was 9.97; that for `COC(=O)c1ccc2nc(Cc3cc(F)c(-c4cccc(OCc5ccc(Cl)cc5F)n4)cc3F)n([C@@H]3COCC3(C)C)c2c1` [Example 532, (S)-methyl 2-(4-(6-((4-chloro-2-fluorobenzyl)oxy)pyridin-2-yl)-2,5-difluorobenzyl)-1-(4,4-dimethyltetrahydrofuran-3-yl)-1H-benzo[d]imidazole-6-carboxylate] was 5.43; that for `COC[C@H]1COC[C@H]1n1c(Cc2cc(F)c(-c3ccc(F)c(OCc4ccc(Cl)cc4)n3)cc2F)nc2ccc(C(=O)O)cc21` [Example 545, 2-(4-(6-((4-chlorobenzyl)oxy)-5-fluoropyridin-2-yl)-2,5-difluorobenzyl)-1-((3S,4S)-4-(methoxymethyl)tetrahydrofuran-3-yl)-1H-benzo[d]imidazole-6-carboxylic acid] was 10.36.
The compound `N#Cc1ccc(COc2cccc(-c3cc(F)c(Cc4nc5ccc(C(=O)O)cc5n4[C@H]4COC[C@H]4C4CC4)cc3F)n2)c(F)c1` [Example 192, 2-(4-(6-((4-cyano-2-fluorobenzyl)oxy)pyridin-2-yl)-2,5-difluorobenzyl)-1-((3R,4S)-4-cyclopropyltetrahydrofuran-3-yl)-1H-benzo[d]imidazole-6-carboxylic acid] gave a negative logarithm of the EC50 (pEC50) of 9.35.
`CNC(=O)[C@@H]1COC[C@@H]1n1c(Cc2cc(F)c(-c3cccc(OCc4ccc(C#N)cc4F)n3)cc2F)nc2ccc(C(=O)O)cc21` (racemic) [Example 75, 2-(4-(6-((4-cyano-2-fluorobenzyl)oxy)pyridin-2-yl)-2,5-difluorobenzyl)-1-((3R,4S)-4-(methylcarbamoyl)tetrahydrofuran-3-yl)-1H-benzo[d]imidazole-6-carboxylic Acid] showed a pEC50 of 7.81.
The value for `CO[C@H]1COCC1n1c(Cc2cc(F)c(-c3cccc(OCc4ccc(C#N)cc4F)n3)cc2F)nc2c(F)cc(C(=O)O)cc21` (single isomer, unassigned) [Example 238] was 10.00; that for `COC[C@@H]1COC[C@@H]1n1c(Cc2cc(F)c(-c3cccc(OCc4ccc(C#N)cc4F)n3)cc2F)nc2ccc(C(=O)O)cc21` (single isomer, unassigned) [Example 176B] was 9.13.
In the case of `COc1cc(Cl)ncc1COc1nc(-c2cc(F)c(Cc3nc4ccc(C(=O)O)cc4n3[C@@H]3COCC3(C)C)cc2F)ccc1F` [Example 342, (S)-2-(4-(6-((6-chloro-4-methoxypyridin-3-yl)methoxy)-5-fluoropyridin-2-yl)-2,5-difluorobenzyl)-1-(4,4-dimethyltetrahydrofuran-3-yl)-1H-benzo[d]imidazole-6-carboxylic acid], the pEC50 was 10.92.
The compound `CC1(C)COC[C@H]1n1c(Cc2cc(F)c(-c3cccc(OCc4ccc(F)c(F)c4F)n3)cc2F)nc2ccc(C(=O)O)cc21` [Example 451, (S)-2-(2,5-difluoro-4-(6-((2,3,4-trifluorobenzyl)oxy)pyridin-2-yl)benzyl)-1-(4,4-dimethyltetrahydrofuran-3-yl)-1H-benzo[d]imidazole-6-carboxylic acid] gave a pEC50 of 9.21.
`CC1(C)COCC1n1c(Cc2cc(F)c(-c3cccc(OCc4ccc(C#N)cc4F)n3)cc2F)nc2c(C#CC3CC3)cc(C(=O)O)cc21` (stereo not shown) [Example 48, 2-(4-(6-((4-cyano-2-fluorobenzyl)oxy)pyridin-2-yl)-2,5-difluorobenzyl)-4-(cyclopropylethynyl)-1-(4,4-dimethyltetrahydrofuran-3-yl)-1H-benzo[d]imidazole-6-carboxylic Acid] had a pEC50 of 9.68.
`COC(C)(C)Cn1c(Cc2cc(F)c(-c3cccc(OCc4ccc(Cl)cc4F)n3)cc2F)nc2ccc(C(=O)O)cc21` [Example 510, 2-(4-(6-((4-chloro-2-fluorobenzyl)oxy)pyridin-2-yl)-2,5-difluorobenzyl)-1-(2-methoxy-2-methylpropyl)-1H-benzo[d]imidazole-6-carboxylic acid]: the pEC50 was 9.29.
The figure for `CC1(C)COC[C@H]1n1c(Cc2cc(F)c(-c3cccc(OCc4ccc(Cl)cc4F)n3)cc2F)nc2c(F)cc(C(=O)O)cc21` [Example 201, (S)-2-(4-(6-((4-chloro-2-fluorobenzyl)oxy)pyridin-2-yl)-2,5-difluorobenzyl)-1-(4,4-dimethyltetrahydrofuran-3-yl)-4-fluoro-1H-benzo[d]imidazole-6-carboxylic acid] is 10.55; for `N#Cc1ccc(COc2cccc(-c3cc(F)c(Cc4nc5ccc(C(=O)O)cc5n4[C@@H]4CO[C@H]5COC[C@H]54)cc3F)n2)c(F)c1` [Example 79, 2-(4-(6-((4-cyano-2-fluorobenzyl)oxy)pyridin-2-yl)-2,5-difluorobenzyl)-1-((3S,3aR,6aR)-hexahydrofuro[3,4-b]furan-3-yl)-1H-benzo[d]imidazole-6-carboxylic Acid] it is 8.25; for `CC1(C)COCC1n1c(Cc2c(F)cc(-c3cccc(OCc4ccc(C#N)cc4F)n3)c(F)c2F)nc2c(F)cc(C(=O)O)cc21` (stereo not shown) [Example 122, 2-(4-(6-((4-cyano-2-fluorobenzyl)oxy)pyridin-2-yl)-2,3,6-trifluorobenzyl)-1-(4,4-dimethyltetrahydrofuran-3-yl)-4-fluoro-1H-benzo[d]imidazole-6-carboxylic Acid] it is 10.51.
`Cc1ccc(COc2cccc(-c3cc(F)c(Cc4nc5ccc(C(=O)O)cc5n4[C@@H]4COCC4(C)C)cc3F)n2)cc1Cl` [Example 452, (S)-2-(4-(6-((3-chloro-4-methylbenzyl)oxy)pyridin-2-yl)-2,5-difluorobenzyl)-1-(4,4-dimethyltetrahydrofuran-3-yl)-1H-benzo[d]imidazole-6-carboxylic acid] showed a negative logarithm of the EC50 (pEC50) of 9.25.
The figure for `COCCn1c(Cc2cc(F)c(-c3cccc(OCc4ccc(-c5ncnn5C)cc4F)n3)cc2F)nc2ccc(C(=O)O)cc21` [Example 112] is 7.64; for `Cc1cc(Cc2nc3ccc(C(=O)O)cc3n2[C@@H]2COCC2(C)C)c(Cl)cc1-c1cccc(OCc2ccc(C#N)cc2)n1` [Example 134, (S)-2-(2-chloro-4-(6-((4-cyanobenzyl)oxy)pyridin-2-yl)-5-methylbenzyl)-1-(4,4-dimethyltetrahydrofuran-3-yl)-1H-benzo[d]imidazole-6-carboxylic Acid] it is 10.11; for `CC1(C)COC[C@@H]1n1c(Cc2cc(F)c(-c3cccc(OCc4ccc(C(F)F)cc4F)n3)cc2F)nc2c(F)cc(C(=O)O)cc21` (single isomer, unassigned) [Example 502B] it is 9.03.
